{"source": "patent US20240277829A1", "about": "“HIV-1 VACCINATION AND SAMT-247 MICROBICIDE TO PREVENT HIV-1 INFECTION” (priority 2021, published 2024)", "key": {"CD14^+ monocytes": {"system": "CD14^+ monocytes", "experiment": "Zinc chelation: macaque blood monocytes, SAMT-247 and/or gp120 peptides with or without TPEN", "assay_type": "cell-based", "procedure": "(§1) Zinc chelation: The frequencies and cytokine levels of NK cells, monocytes and T cells were measured in macaque blood. Cryopreserved PBMCs were thawed and cultured in R10 in the presence/or absence of SAMT-247 and/or gp120 peptides for 12 hours. Cells were incubated with or without Zinc chelator TPEN (cat. #P4413-100 MG, 5 μM) for 12 h. Subsequently, cells were stained for live cells with Live/Dead Blue dye (cat. #L34962, 0.5 μl) from Thermofisher; followed by surface staining with the following: Alexa 700 anti-CD3 (SP34-2; cat. #557917, 5 μl), BV711 anti-CD4 (L200; cat. #563913, 5 μl), BB700 anti-CD8 (RPA-T8; cat. #566452, 5 μl), BUV737 anti-CD20 (2H7; cat. #612848, 5 μl), PE anti-CD45 (D058-1283; cat. #552833, 5 μl), BV786 anti-CCR5 (3A9; cat. #565001, 5 μl), BV496 anti-CD16 (3G8; cat. #612944, 5 μl), BUV661 anti-HLA-DR (G46-6; cat. #612980, 5 μl), BUV805 anti-CD14 (M5E2; cat. #565779, 5 μl) from BD Biosciences; APC-H7 anti-CD11b (ICRF44; cat. #47-0118-42, 5 μl), PE-Cy5 anti-CD95 (ICRF44; cat. #15-0959-42, 5 μl) from eBioscience; APC anti-α4β7, provided by the NIH Nonhuman Primate Reagent Resource (R24 OD010976, and NIAID contract HHSN272201300031C); BV605 anti-CCR6 (G034E3; cat. #353420, 5 μl), BV650 anti-CXCR3 (G025H7; cat. #353730, 5 μl), from Biolegend and PE-Cy7 anti-NKG2A (Z199; cat. #B10246, 5 μl) from Beckman coulter for 30 minutes at room temperature. This was followed by permeabilization with a FOX3-transcription buffer set (cat. #00-5523-00) from eBioscience according to the manufacture's recommendation and subsequently intracellular staining with the following: BV750 anti-TNF-α (MAB11; cat. #566359, 5 μl), BUV395 anti-IFN-γ (B27; cat. #563563, 5 μl), BV510 anti-GranB (GB11; cat. #563388, 5 μl), BV421 anti-IL-10 (JES3-9D7; cat. #564053, 5 μl), PE-CF594 anti-Ki67 (B56; cat. #567120, 5 μl) from BD Biosciences and FITC anti-Perforin (pf-344; cat. #3465-7, 5 μl) from MABTECH for 30 minutes at room temperature. Flow cytometry acquisitions were performed on a FACSYMPHONY™ A5 and examined using FACSDIVA™ software (BD Biosciences)."}, "NKG2A^+ cells": {"system": "NKG2A^+ cells", "experiment": "Zinc chelation: macaque blood NK cells, SAMT-247 and/or gp120 peptides with or without TPEN", "assay_type": "cell-based", "conditions": "presence or absence of gp120 peptide", "procedure": "as §1"}}}
{"smiles": "CC(=O)Sc1ccccc1C(=O)NCCC(N)=O", "note": "[SAMT-247]", "values": [{"measurement": "Cytokine", "setting": "CD14^+ monocytes; Monocytes unstimulated or +gp120 peptides, * Zinc dependence", "result": ">IL-10 *"}, {"measurement": "IL-10 expression in CD14^+ monocytes", "setting": "CD14^+ monocytes; SAMT-247 alone or together with gp120 peptides", "result": "increased"}, {"measurement": "frequency of NKG2A^+ cells", "setting": "NKG2A^+ cells", "result": "increased"}]}
